Data as given in patent publication US6492137B1, “Response element compositions and assays employing same” (The Salk Institute for Biological Studies, priority 1989, dated 2002).

How the values were obtained:
[1] = test system: endogenous RA receptor; test: Delta-MTV-CAT constructs, RA induction in CV-1 cells without cotransfected RAR expression vector; type: cell-based, monkey
Procedure: (§1) Cells were transfected in 10 cm dishes with 10 μg of DNA containing 5 μg of reporter plasmid, 1-2 μg of either RSV-LUC (a), or RSV-βGAL or pCH110 (c and d), pGEM4 as carrier DNA, and for the experiments shown in a and d, 1 μg of RSV-RAR expression vector or the same amount of an RSV vector generating a nonsense transcript. Cells were harvested 1 day after addition of retinoic acid. All CAT assays represent equivalent amounts of β-galactosidase activity; β-GAL assays were normalized to luciferase activity.

[2] = target: T1, RAR (Homo sapiens, UniProt P10276); test: Delta-MTV constructs, RA induction in CV-1 cells with cotransfected RAR expression vector; type: cell-based; conditions: Delta-MTV-CAT constructs; CV-1 cells
T1 construct: expressed in transfected cells; host or cells: CV-1 (monkey kidney)
T1 sequence (P10276 1-462): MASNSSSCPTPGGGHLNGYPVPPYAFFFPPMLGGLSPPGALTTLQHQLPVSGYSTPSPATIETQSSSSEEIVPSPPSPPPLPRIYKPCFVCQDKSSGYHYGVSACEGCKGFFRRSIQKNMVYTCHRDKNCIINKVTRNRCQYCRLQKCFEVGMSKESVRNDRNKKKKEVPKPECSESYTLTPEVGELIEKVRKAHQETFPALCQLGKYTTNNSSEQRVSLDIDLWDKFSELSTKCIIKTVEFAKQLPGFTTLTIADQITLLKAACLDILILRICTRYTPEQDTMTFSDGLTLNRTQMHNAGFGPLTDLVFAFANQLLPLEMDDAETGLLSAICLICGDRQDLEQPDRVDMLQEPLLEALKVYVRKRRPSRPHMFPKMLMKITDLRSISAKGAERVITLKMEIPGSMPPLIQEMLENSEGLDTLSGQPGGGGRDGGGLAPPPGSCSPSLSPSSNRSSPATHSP
Procedure: (§2) Inspection of the sequences of βRE1, βRE2, and βRE3 (see FIG. 2b) identifies a tandem repeat of the 6 bp motif. The center to center separation of 11 bp between these repeats is one turn of the DNA helix. […] Apparently, a single half site element of the RARβ gene would reciprocally be responsive to the TR, ER, and/or other members of the receptor superfamily.
as §1

[3] = target: T2, ER (Homo sapiens, UniProt P03372); test: Cotransfection of ER with construct βRE1 in CV-1 cells; type: cell-based; conditions: absence or addition of the appropriate ligand
T2 construct: expressed in transfected cells; host or cells: CV-1 (monkey kidney)
T2 sequence (P03372 1-595): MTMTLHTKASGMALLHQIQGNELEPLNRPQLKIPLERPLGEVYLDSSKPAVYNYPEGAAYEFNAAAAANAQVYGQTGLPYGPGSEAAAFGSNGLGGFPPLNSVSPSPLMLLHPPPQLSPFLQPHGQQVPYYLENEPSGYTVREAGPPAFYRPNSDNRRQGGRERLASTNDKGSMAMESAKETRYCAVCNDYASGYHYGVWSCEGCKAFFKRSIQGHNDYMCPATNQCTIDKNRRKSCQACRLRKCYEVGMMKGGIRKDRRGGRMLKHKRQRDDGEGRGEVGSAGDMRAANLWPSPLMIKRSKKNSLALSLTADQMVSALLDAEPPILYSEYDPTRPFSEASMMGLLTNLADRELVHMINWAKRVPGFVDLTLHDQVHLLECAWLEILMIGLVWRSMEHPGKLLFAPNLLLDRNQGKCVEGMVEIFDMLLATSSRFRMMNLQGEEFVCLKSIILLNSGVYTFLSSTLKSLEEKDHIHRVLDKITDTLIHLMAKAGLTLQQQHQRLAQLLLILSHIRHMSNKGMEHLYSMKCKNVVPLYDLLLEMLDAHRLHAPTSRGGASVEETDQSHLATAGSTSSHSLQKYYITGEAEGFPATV
Description: as §2

[4] = target: T3, GR (Homo sapiens, UniProt P04150); test: Cotransfection of GR with construct βRE1 in CV-1 cells; type: cell-based; conditions: absence or addition of the appropriate ligand
T3 construct: expressed in transfected cells; host or cells: CV-1 (monkey kidney)
T3 sequence (P04150 1-777): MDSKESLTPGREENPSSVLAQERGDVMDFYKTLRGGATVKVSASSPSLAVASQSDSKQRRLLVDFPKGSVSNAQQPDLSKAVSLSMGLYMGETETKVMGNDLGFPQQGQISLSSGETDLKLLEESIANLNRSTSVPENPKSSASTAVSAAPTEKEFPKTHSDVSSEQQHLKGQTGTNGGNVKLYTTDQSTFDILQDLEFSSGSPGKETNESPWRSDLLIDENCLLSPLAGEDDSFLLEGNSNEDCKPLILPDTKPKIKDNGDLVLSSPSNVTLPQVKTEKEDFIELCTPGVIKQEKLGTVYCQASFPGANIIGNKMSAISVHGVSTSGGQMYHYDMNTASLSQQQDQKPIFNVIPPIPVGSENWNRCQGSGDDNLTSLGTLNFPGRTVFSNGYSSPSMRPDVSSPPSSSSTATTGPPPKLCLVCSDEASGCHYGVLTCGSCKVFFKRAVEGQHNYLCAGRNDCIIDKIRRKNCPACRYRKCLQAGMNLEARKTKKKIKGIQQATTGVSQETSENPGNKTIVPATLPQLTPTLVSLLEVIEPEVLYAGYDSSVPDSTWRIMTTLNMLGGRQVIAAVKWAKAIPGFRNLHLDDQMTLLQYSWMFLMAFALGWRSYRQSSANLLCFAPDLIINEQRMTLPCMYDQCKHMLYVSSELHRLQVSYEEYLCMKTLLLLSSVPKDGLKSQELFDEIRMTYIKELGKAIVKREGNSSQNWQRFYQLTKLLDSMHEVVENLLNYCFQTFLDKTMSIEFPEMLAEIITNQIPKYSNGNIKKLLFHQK
Description: as §2

[5] = test system: TR; test: Cotransfection of TR with construct βRE1 in CV-1 cells; type: cell-based; conditions: cognate ligand
Description: as §2

[6] = target: T4, vitamin D receptor (VD3R) (Homo sapiens, UniProt P11473); test: Cotransfection of vitamin D receptor with construct βRE1 in CV-1 cells; type: cell-based; conditions: cognate ligand
T4 construct: expressed in transfected cells; host or cells: CV-1 (monkey kidney)
T4 sequence (P11473 1-427): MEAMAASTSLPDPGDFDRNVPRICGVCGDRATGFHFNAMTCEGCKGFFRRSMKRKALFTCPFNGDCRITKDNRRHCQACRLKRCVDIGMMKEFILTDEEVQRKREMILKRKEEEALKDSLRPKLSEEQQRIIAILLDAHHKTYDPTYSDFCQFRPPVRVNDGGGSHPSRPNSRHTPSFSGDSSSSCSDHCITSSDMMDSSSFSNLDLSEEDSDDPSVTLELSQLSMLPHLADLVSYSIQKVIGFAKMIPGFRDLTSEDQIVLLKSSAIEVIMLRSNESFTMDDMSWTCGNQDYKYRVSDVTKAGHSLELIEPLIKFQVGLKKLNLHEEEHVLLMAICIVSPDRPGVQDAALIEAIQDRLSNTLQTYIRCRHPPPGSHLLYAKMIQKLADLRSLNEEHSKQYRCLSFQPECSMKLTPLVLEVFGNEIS
Description: as §2

[7] = test system: endogenous RA receptor; test: Survey of cell lines for RA-dependent transactivation of the βRARE without transfected RAR; type: cell-based; conditions: CV-1, F9, P19, CHO, HeLa, NIH 3T3, Rat2 fibroblasts, HT1080.T, chick embryo fibroblasts, quail QT6 cells
[8] = target: T5, TRβ (Homo sapiens, UniProt P10828); test: Gel retardation DNA-binding assay with TRβ-expressing COS cell extracts; design: expressed in transfected cells; host or cells: COS cells (whole-cell extract)
T5 sequence (P10828 1-461): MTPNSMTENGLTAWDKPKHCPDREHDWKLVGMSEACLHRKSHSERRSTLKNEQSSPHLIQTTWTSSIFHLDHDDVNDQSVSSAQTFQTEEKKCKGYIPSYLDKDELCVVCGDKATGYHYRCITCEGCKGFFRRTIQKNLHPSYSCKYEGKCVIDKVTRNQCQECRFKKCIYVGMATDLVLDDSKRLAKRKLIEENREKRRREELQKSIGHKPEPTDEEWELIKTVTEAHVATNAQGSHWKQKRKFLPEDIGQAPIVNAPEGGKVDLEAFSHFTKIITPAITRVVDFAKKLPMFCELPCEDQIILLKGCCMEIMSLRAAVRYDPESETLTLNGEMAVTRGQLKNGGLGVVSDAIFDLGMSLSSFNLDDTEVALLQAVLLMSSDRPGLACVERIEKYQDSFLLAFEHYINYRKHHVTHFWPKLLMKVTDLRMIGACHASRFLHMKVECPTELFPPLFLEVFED
Outline: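 Extracts of COS cells transfected with pCMX TRβ expression plasmid, 48 h post-transfection; 5 μg protein pre-incubated on ice 20 min with poly dI/dC, then 40 fmole 32P-labelled oligonucleotide 30 min at room temperature. Complexes resolved on 5% polyacrylamide gel.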

[9] = target: T6, RARα (Homo sapiens, UniProt P10276); test: Gel retardation DNA-binding assay with RARα-expressing COS cell extracts; design: expressed in transfected cells; host or cells: COS cells (whole-cell extract)
T6 sequence (P10276 1-462): T1 sequence (P10276 1-462)
Procedure: For DNA binding assays, COS cells were cultured in DMEM with 10% calf bovine serum and transfected by the calcium phosphate method with 20 μg of the pCMX receptor expression plasmid for 6 hours followed by a glycerol shock. After incubating the transfected COS cells for another 48 hours, the cells were harvested to prepare extracts for the DNA binding assay, carried out as described by Damm et al., Nature 339: 593-597 (1989). The extracts were made in 20 mM HEPES (pH 7.4), 0.4 M KCl, 2 mM DTT and 20% glycerol. A similar method was employed to prepare a whole cell extract from F9 stem cells. For the binding, 5 μg (COS) or 10 μg (F9) of proteins was incubated on ice for 20 minutes, first in 20 mM HEPES, 80 mM KCl, 1 mM DTT, 0.1% NP40, 2.5 μg of poly dI/dC, and 10% glycerol (cold competitor oligonucleotides, when included, were added during this pre-incubation period). Then 40 fmole of ^32P-labeled oligonucleotide probe (1-2×10^5 cpm, prepared by filling-in reaction using Klenow polymerase in the presence of α-^32P-dCTP) was added to the reaction mixture, followed by incubation at room temperature for 30 minutes. The receptor-DNA complexes were resolved by electrophoresis through 5% polyacrylamide gel containing 5% glycerol at 6 V/cm at room temperature.
Oligonucleotides listed in FIG. 3 were used as a probe to test specific DNA-binding of the RARα and TRβ in a gel retardation assay. On the βRARE, a faint background binding activity was detected in the mock transfected COS cell extract. […] In each case the result obtained from in vivo transactivation and in vitro DNA binding are consistent.
Using the mobility shift assay, the DNA-binding capacity of extracts from COS cells expressing TRβ and RARα to these sequences was also tested. […] This pattern is consistent with that of the in vivo activation (FIG. 4). A reciprocal pattern was obtained when the same oligonucleotides were used to compete RARα binding to the ^32P-labeled βRARE. […] This provides a striking example of the role of half-site spacing in generating a functional response element.

Substance	RA-dependent induction in the absence of cotransfected RAR expression vector [1]	increase of induction by cotransfection of RAR-alpha expression vector [2]	activation with cotransfected ER [3]	activation with cotransfected GR [4]	activation with cotransfected TR, fold less [5]	activation with cotransfected vitamin D receptor, fold less [6]	RA-dependent transactivation in the absence of transfected RAR expression vector [7]	TRβ binding to labeled oligonucleotide probe ([8]; gel retardation, TRβ COS cell extract)	competition for TRβ binding (mobility shift assay) ([8]; unlabeled competitor oligonucleotide, COS cells expressing TRβ)	RARα binding to labeled oligonucleotide probe ([9]; gel retardation, RARα COS cell extract)	competition for RARα binding to 32P-labeled βRARE ([9]; unlabeled competitor oligonucleotide, COS cell extracts)
5′-AAGCTTAAG-GGTTCA-CCGAA-AGTTCA-CACGCATATATTAGCTT-3′ (SEQ ID NO:5) (AAGCTTAAGGGTTCACCGAAAGTTCACTCGCATATATTAGCTT; DNA, backbone not given here) [βRE1, oligonucleotide including the β retinoic acid response element]	robust RA-dependent induction	two-fold	failed to result in appreciable activation	failed to result in appreciable activation	10- to 20 fold	10- to 20 fold					
5′-AAGCTTAAG-GGTTCA-CCGAA-AGTTCA-CTCGCATAGCTT-3′ (SEQ ID NO:6) (AAGCTTAAGGGTTCACCGAAAGTTCACTCGCATAGCTT; DNA, backbone not given here) [βRE2, oligonucleotide including the β retinoic acid response element; βRARE corresponds to βRE2]	robust RA-dependent induction	two-fold					efficiently transactivate	weak, yet detectable binding activity	poor competitors	dramatically enhanced	effective competitors
